According to paper PMC10510381, “Alkyne as a Latent Warhead to Covalently Target SARS-CoV-2 Main Protease” (Journal of Medicinal Chemistry, 2023):
Several values for one entry are separate records, joined by “and”; a condition that tells them apart may be missing. Identical values can stand only once. Entries after “also recorded” stand apart in the source; their conditions may differ. Like-named read-outs stand apart in the source and are kept apart here. Residues, ends and D or L forms follow the SMILES beside them. *: point of attachment. Cbz = O=C(OCc1ccccc1)*

Tests used:
recombinant M^pro = recombinant M^pro (Severe acute respiratory syndrome coronavirus 2, UniProt P0DTD1); type: binding
HeLa proteome = type: cell-based, human
HEK293T proteome = experiment: Proteomic labeling of parental HEK293T cells (in-gel fluorescence); type: cell-based, human
[1] = target: M^pro expressed in HEK293T cells (Severe acute respiratory syndrome coronavirus 2, UniProt P0DTD1); type: cell-based; details: HEK293T transiently transfected with M^pro
SARS-CoV-2 M^pro = SARS-CoV-2 M^pro (Severe acute respiratory syndrome coronavirus 2, UniProt P0DTD1); experiment: biochemical; details: for inhibition against M^pro: up to 80 μM
SARS-CoV-2 = type: cell-based
[2] = 15-min treatment of M^pro (0.5 μM), FRET substrate 20 μM, both duplicate values given, read-out: IC50
[3] = 15-min pre-incubation, read-out: IC50 (average of duplicate)

## C#CC[C@H](NC(=O)C(F)(F)F)C(=O)N1C[C@H]2[C@@H]([C@H]1C(=O)N[C@H](C#C)C[C@@H]1CCNC1=O)C2(C)C [Alk-4d, O=C1NCC[C@H]1C[C@@H](C#C)NC([C@H]2N(C([C@@H](NC(C(F)(F)F)=O)CC#C)=O)C[C@H]3[C@@H]2C3(C)C)=O]
Recombinant M^pro; 1 h treatment
  probe concentration for efficient labeling of M^pro: above 1 μM
  probe concentration reaching saturation of M^pro labeling: 3 µM
HeLa proteome
  proteome labeling, HeLa cells: little labeling
HEK293T proteome; 1 hour, up to 30 μM
  proteome labeling, HEK293T cells: little labeling; also recorded: did not label any proteins
HEK293T proteome; 5 h, all tested concentrations
  proteome labeling, HEK293T cells: little proteome labeling
[1]
  labeling of M^pro in live cells: dose-dependent labeling

## C#CC[C@H](NC(=O)C(F)(F)F)C(=O)N1C[C@H]2[C@@H]([C@H]1C(=O)N[C@H](C#CC(F)(F)F)C[C@@H]1CCNC1=O)C2(C)C [Alk-4i, O=C1NCC[C@H]1C[C@@H](C#CC(F)(F)F)NC([C@H]2N(C([C@@H](NC(C(F)(F)F)=O)CC#C)=O)C[C@H]3[C@@H]2C3(C)C)=O]
Recombinant M^pro
  lowest concentration tested, giving intense labeling of M^pro: 300 nM
Recombinant M^pro; time-course
  incubation time to label M^pro near saturation: 5 min
HEK293T proteome; 5 h, 10 μM
  proteome labeling, HEK293T cells: significant labeling

## CC(C)C[C@H](NC(=O)OCc1ccccc1)C(=O)N[C@H](/C=C/C(=O)OCc1ccccc1)CCC(N)=O [Compound 1a, O=C(N[C@@H](CCC(N)=O)/C=C/C(OCC1=CC=CC=C1)=O)[C@H](CC(C)C)NC(OCC2=CC=CC=C2)=O]
SARS-CoV-2 M^pro; [2]
  IC50: 2.5 µM and 3.9 µM

## CC(C)C[C@H](NC(=O)OCc1ccccc1)C(=O)N[C@H](/C=C/S(C)(=O)=O)CCC(N)=O [Compound 1b, O=C(N[C@@H](CCC(N)=O)/C=C/S(C)(=O)=O)[C@H](CC(C)C)NC(OCC1=CC=CC=C1)=O]
SARS-CoV-2 M^pro; [2]
  IC50: 12 µM and 18 µM

## CNS(=O)(=O)/C=C/[C@H](CCC(N)=O)NC(=O)[C@H](CC(C)C)NC(=O)OCc1ccccc1 [Compound 1c, O=C(N[C@@H](CCC(N)=O)/C=C/S(=O)(NC)=O)[C@H](CC(C)C)NC(OCC1=CC=CC=C1)=O]
SARS-CoV-2 M^pro; [3]
  IC50: 47 µM
SARS-CoV-2 M^pro; [2]
  IC50: 39 µM and 55 µM

## C#C[C@H](CCC(N)=O)NC(=O)[C@H](CC(C)C)NC(=O)OCc1ccccc1 [Compound 1d, O=C(N[C@@H](CCC(N)=O)C#C)[C@H](CC(C)C)NC(OCC1=CC=CC=C1)=O]
SARS-CoV-2 M^pro; [2]
  IC50: 35 µM and 60 µM

## CC(C)C[C@H](NC(=O)OCc1ccccc1)C(=O)N[C@H](C=O)CCC(N)=O [Compound 1e, O=C(N[C@@H](CCC(N)=O)C([H])=O)[C@H](CC(C)C)NC(OCC1=CC=CC=C1)=O] (Cbz-Leu-Gln-aldehyde)
SARS-CoV-2 M^pro; [2]
  IC50: > 80 µM
SARS-CoV-2 M^pro
  inhibition against M^pro: failed to cause significant inhibition

## CC(C)C[C@H](NC(=O)OCc1ccccc1)C(=O)N[C@@H](CCC(N)=O)C(=O)C(=O)NCc1ccccc1 [Compound 1f, O=C(N[C@@H](CCC(N)=O)C(C(NCC1=CC=CC=C1)=O)=O)[C@H](CC(C)C)NC(OCC2=CC=CC=C2)=O]
SARS-CoV-2 M^pro; [2]
  IC50: > 80 µM
SARS-CoV-2 M^pro
  inhibition against M^pro: failed to cause significant inhibition

## CC(C)C[C@H](NC(=O)OCc1ccccc1)C(=O)N[C@H](C#N)CCC(N)=O [Compound 1g, O=C(N[C@@H](CCC(N)=O)C#N)[C@H](CC(C)C)NC(OCC1=CC=CC=C1)=O]
SARS-CoV-2 M^pro; [2]
  IC50: > 80 µM
SARS-CoV-2 M^pro
  inhibition against M^pro: failed to cause significant inhibition

## C#C[C@H](CCC(N)=O)NC(=O)[C@H](CC(C)C)NC(=O)c1cc2c(OC)cccc2[nH]1 [Compound 2d, O=C(N[C@@H](CCC(N)=O)C#C)[C@H](CC(C)C)NC(C1=CC2=C(C=CC=C2OC)N1)=O]
SARS-CoV-2 M^pro; 15-min pre-incubation, both duplicate values given, read-out: IC50 uM (15-min pre-incubation)
  IC50: 22 µM
SARS-CoV-2 M^pro; [2]
  IC50: 22 µM

## COc1cccc2[nH]c(C(=O)N[C@@H](CC(C)C)C(=O)N[C@H](C#N)CCC(N)=O)cc12 [Compound 2g, O=C(N[C@@H](CCC(N)=O)C#N)[C@H](CC(C)C)NC(C1=CC2=C(C=CC=C2OC)N1)=O]
SARS-CoV-2 M^pro; [2]
  IC50: 29 µM and 30 µM

## C#C[C@H](C[C@@H]1CCNC1=O)NC(=O)[C@H](CC(C)C)NC(=O)c1cc2c(OC)cccc2[nH]1 [Compound 3d, O=C(N[C@@H](C[C@H]1C(NCC1)=O)C#C)[C@H](CC(C)C)NC(C2=CC3=C(C=CC=C3OC)N2)=O]
SARS-CoV-2 M^pro; [3]
  IC50: ~7 µM
SARS-CoV-2 M^pro; [2]
  IC50: 10 µM and 4.4 µM

## CC(C)(C)[C@H](NC(=O)C(F)(F)F)C(=O)N1C[C@H]2[C@@H]([C@H]1C(=O)N[C@H](C=O)C[C@@H]1CCNC1=O)C2(C)C [Compound 4e, O=C1NCC[C@H]1C[C@@H](C([H])=O)NC([C@H]2N(C([C@@H](NC(C(F)(F)F)=O)C(C)(C)C)=O)C[C@H]3[C@@H]2C3(C)C)=O]
SARS-CoV-2 M^pro; [2]
  IC50: 0.29 µM and 0.3 µM

## CC(C)(C)[C@H](NC(=O)C(F)(F)F)C(=O)N1C[C@H]2[C@@H]([C@H]1C(=O)N[C@H](C#N)C[C@@H]1CCNC1=O)C2(C)C [Compound 4g, nirmatrelvir, reference compound]
Hela-ACE2 cells; up to the highest concentration tested, 10 μM, 20 h
  cytotoxicity: no notable cytotoxicity

## CC(C)(C)[C@H](NC(=O)C(F)(F)F)C(=O)N1C[C@H]2[C@@H]([C@H]1C(=O)N[C@@H](C[C@@H]1CCNC1=O)C(N)=O)C2(C)C [Compound 4h, O=C1NCC[C@H]1C[C@@H](C(N)=O)NC([C@H]2N(C([C@@H](NC(C(F)(F)F)=O)C(C)(C)C)=O)C[C@H]3[C@@H]2C3(C)C)=O]
SARS-CoV-2 M^pro; [2]
  IC50: > 80 µM

## CC(C)(C)[C@H](NC(=O)C(F)(F)F)C(=O)N1C[C@H]2[C@@H]([C@H]1C(=O)N[C@H](C#CC(F)(F)F)C[C@@H]1CCNC1=O)C2(C)C [Compound 4i, O=C1NCC[C@H]1C[C@@H](C#CC(F)(F)F)NC([C@H]2N(C([C@@H](NC(C(F)(F)F)=O)C(C)(C)C)=O)C[C@H]3[C@@H]2C3(C)C)=O]
Hela-ACE2 cells
  cytotoxicity: no notable cytotoxicity
Recombinant M^pro; competition with 10 μM Alk-4d
  concentration sufficient to abolish labeling of M^pro: 1 µM
SARS-CoV-2
  antiviral activity: strong, dose-dependent antiviral activity
SARS-CoV-2; sub-micromolar concentrations, HeLa-ACE2, 24 h
  anti-COVID activity: significant anti-COVID activity
